{"source": "patent US10023615B2", "about": "“Efficient transport into white blood cells” (priority 2008, dated 2018)", "key": {"[1]": {"system": "hAPP Tg mice (APP751 London and Swedish mutations)", "assay": "Morris Water Maze in hAPP-transgenic mice", "assay_type": "in vivo, mouse", "method": "In order to determine the activity of the exemplary all-D retro-inverso IB(s) peptide XG-102 (SEQ ID NO: 233) in Alzheimer's disease, XG-102 (SEQ ID NO: 233) was evaluated in the hAPP-transgenic mice model overexpressing APP751 with London and Swedish mutations using the behavioral Morris Water Maze test as well as immunohistological tests measuring plaque load and ELISA tests measuring β-amyloid1-40 and β-amyloid1-42 levels in the brain of mice.\na) METHODS • i) Introduction • The study was designed to evaluate the efficacy of the test substance (XG-102, SEQ ID NO: 233) on behavioral, biochemical and histological markers using 5 months (±2 weeks) old female hAPP Tg mice. Therefore, mice were treated every two or three weeks up to 4 months and in the end of the treatment period behavior was evaluated in the Morris Water Maze. At sacrifice brain, CSF and blood were collected. Aβ40 and Aβ42 levels were determined in four different brain homogenate fractions as well as in CSF of Tg mice. Plaque load was quantified in the cortex and the hippocampus of 8 Tg animals per treatment group.\nii) Animals • Female Tg mice with a C57BU6xDBA background and an age of 5 months (±2 week) were randomly assigned to treatment groups 1 to 3 (n=12). […]"}, "[2]": {"assay": "Tissue distribution of C14 radiolabeled D-TAT-tagged peptides", "assay_type": "in vivo, mouse", "conditions": "1 mg/kg s.c., i.v., i.p.; 72 hours after injection", "method": "Mice were treated via three different routes of administration (s.c., i.v., i.p.) with radiolabeled peptides with C^14 (1 mg/kg). Animals were sacrificed 72 hours after injection and processed for immunoradiography. […] This illustrates that the transporter D-TAT is responsible for the tissue distribution."}, "TNBS induced colitis": {"system": "TNBS induced colitis", "assay": "TNBS induced colitis (IBD study)", "assay_type": "in vivo", "method": "b) Constitution of Test Groups and Dose Levels • The table below lists the experimental groups comprising the study.\nc) Test Procedures • Colitis was induced by administration of TNBS dissolved in 50% Ethanol • All animals were then treated with doses of XG-102 in the range of 0.1 to 1000 μg/kg, […], as a single or repeated daily doses (see above).\nd) Observations and Examinations • i) Clinical Signs • Throughout the duration of the above experiment, careful clinical examinations were carried out and recorded. Observations included changes external appearance, e.g. of the skin, fur, eyes, mucous membranes, occurrence of secretions and excretions (e.g. diarrhea), and autonomic activity. Changes in gait, posture and response to handling, as well as the presence of bizarre behavior, tremors, convulsions, sleep and coma were also noted. • ii) Body Weights • Determination of individual body weight of animals was made on a daily basis. • iii) Clinical Assessment of Colitis • Body weight, stool consistency and bleeding per rectum were all recorded daily and served as the parameters of disease severity score:\n• iv) Gross Pathology of the Colon • On the last day of the experiment, animals were euthanized and the colon was removed for gross pathology evaluation according to the following score: […]"}}, "note": "Entries after “also recorded” stand apart in the source; their conditions may differ. Ends that are not written are not given here.", "data": [{"substance": "dqsrpvqpflnIttprkprpprrrqrrkkrg (DQSRPVQPFLNLTTPRKPRPPRRRQRRKKRG; not fully specified (some residues); printed as dqsrpvqpflnIttprkprpprrrqrrkkrg) [XG-102]", "values": [{"measurement": "learning performance between day 1 and day 4", "setting": "[1]; 0.1 mg/kg", "value": "a tendency to have worse learning performance between day 1 and day 4; also recorded: a slightly poorer learning performance between the first and the last training day"}, {"measurement": "spatial learning in the MWM", "setting": "[1]; 0.1 mg/kg every two weeks or 10 mg/kg every three weeks s.c., four months", "value": "remained widely uninfluenced"}, {"measurement": "tissue distribution (accumulation)", "setting": "[2]", "value": "in the liver, spleen, and bone marrow predominantly"}, {"measurement": "disease recovery (conclusion)", "setting": "TNBS induced colitis", "value": "active in enhancing diseases recovery"}, {"measurement": "body weights", "setting": "TNBS induced colitis; TNBS induced weight loss", "value": "either prevented the weight loss or ameliorated the symptoms and supported recovery"}, {"measurement": "clinical score", "setting": "TNBS induced colitis; any dose, route or time schedule (single dose or daily dose)", "value": "an effect equivalent to or better than the one observed with the commonly used reference drug sulfasalazine"}, {"measurement": "clinical signs", "setting": "TNBS induced colitis; mouse, in vivo", "value": "No abnormalities were observed"}, {"measurement": "mortality rate", "setting": "TNBS induced colitis; mouse, in vivo", "value": "No mortality was recorded"}]}]}
